Measurements from article PMC10885153, “Membrane Permeability in a Large Macrocyclic Peptide Driven by a Saddle-Shaped Conformation” (Journal of the American Chemical Society, 2024).
Positions of bridges follow the written chain, without caps; N, C: chain ends. Non-standard residues stand in square brackets, D forms with d. Residues, ends and D or L forms follow the SMILES beside them. Cha = N[C@@H](CC1CCCCC1)C(=O)O; NMeNva = CCC[C@H](NC)C(=O)O; NMeAbu = CC[C@H](NC)C(=O)O; NMeC = CN[C@@H](CS)C(=O)O; NMeA = CN[C@@H](C)C(=O)O; Nva = CCC[C@H](N)C(=O)O; Abu = CC[C@H](N)C(=O)O; NPrGly = CCCNCC(=O)O; NEtG = CCNCC(=O)O

Columns and labels:
[1] = PAMPA, 10 µM, pH 7.4
in vitro [2] = details: PAMPA
in vitro [3] = details: dog, MDCK, pH 7.4
Protocol: We also tested the permeabilities of the pure compounds in a cell-based trans-well permeability assay using Mdr1 knockout Madin–Darby canine kidney (MDCK) cells which minimize the endogenous efflux activity of traditional MDCK cells.[54]
The gMDCKI cell line (overexpressed cell line of Madin -Darby Canine Kidney which acquired from the NIH)
maintained in DMEM medium supplemented with 1% pen -strep, 5 µg/mL Plasmocin, and 10% FBS under
standard culture conditions (37 °C, 95% humidity, and 5% CO2), were seeded (0.75 x 10^5 cells) on the HTS
Transwell-96 permeable support (Corning) to form a confluent monolayer for two days.
All experimental steps were fully automated on Hamilton Vantage. Compound stock solution (1 mM in
DMSO) was diluted (10 μM final in HBSS, pH 7.4) with Lucifer Yellow as leakage indicator (20 μM). After
washing with HBSS buffer, the solution of test compounds was added to the apical side of the monolayers.
The plate was incubated for 3 h at 37 °C. T0 samples (10 µL of the 10 µM compounds diluted solution with
LY) were transferred to a 96-well plate, and then 40 µL of HBSS was added. After 3 hours, 50 μL basolateral
samples in the receiving plate were transferred to a fresh 96-well plate and added 100 μL of IS solution
(Propranolol). LY were read by plate reader and the samples were analyzed by LC/MS/MS.
The apparent permeability coefficient (Papp) is calculated from the permeation rate and compound
concentration at t=0h and t=3h. Where:
dQ/dt: amount of product present in the basal (A-B) or apical (B-A) compartment as a function of time
A: area of transwell (cm2).
C0: initial concentration of product applied in the apical (A -B) or basal (B-A) compartment (nmol/ml).

| %R_avg [1] [%] | Papp at 10 µM (in vitro [2]; pH 7.4, Pe_avg) [×10⁻⁶ cm/s] | SMILES | further results |
| --- | --- | --- | --- |
| 19.3 |  | CCOC(=O)[C@@H]1CSCC(=O)N[C@@H](CC(C)C)C(=O)N(C)[C@@H](C)C(=O)N[C@@H](CC(C)C)C(=O)N2CCC[C@@H]2C(=O)N(C)[C@@H](CC)C(=O)N[C@@H](CC)C(=O)N(C)[C@@H](C)C(=O)N[C@@H](CC(C)C)C(=O)N1C [LC02, O=C(N(C)[C@H](C(OCC)=O)CSCC(N[C@H](C(N(C)[C@@H](C)C(N[C@@H](CC(C)C)C(N1[C@H](CCC1)C(N(C)[C@@H](CC)C(N[C@H]2CC)=O)=O)=O)=O)=O)CC(C)C)=O)[C@H](CC(C)C)NC([C@H](C)N(C)C2=O)=O] ({CH2CO}-L[NMeA]L[dP][NMeAbu][Abu][NMeA]L[NMeC]-OEt; thioether N-9) | Papp at 10 µM (in vitro [2]; pH 7.4, Permeability (Papp) PAMPA (mixture)): 5 ×10⁻⁶ cm/s; Papp A→B at 3 h, 10 µM (in vitro [3]): 7.4 ×10⁻⁶ cm/s; Papp at 3 h, 10 µM (in vitro [3]): 7.4 ×10⁻⁶ cm/s |
| 20.3 |  | CCC[C@@H]1NC(=O)[C@H](C)N(C)C(=O)[C@H](CC(C)C)NC(=O)CSC[C@@H](C(=O)OCC)N(C)C(=O)[C@H](CC(C)C)NC(=O)[C@H](C)N(C)C(=O)[C@H](CC)NC(=O)[C@H](CCC)N(C)C(=O)[C@H]2CCCN2C1=O [LC03, O=C(N(C)[C@H](C(OCC)=O)CSCC(N[C@H](C(N(C)[C@@H](C)C(N[C@@H](CCC)C(N1[C@H](CCC1)C(N(C)[C@@H](CCC)C(N[C@H]2CC)=O)=O)=O)=O)=O)CC(C)C)=O)[C@H](CC(C)C)NC([C@H](C)N(C)C2=O)=O] ({CH2CO}-L[NMeA][Nva][dP][NMeNva][Abu][NMeA]L[NMeC]-OEt; thioether N-9) |  |
| 4.6 |  | CCOC(=O)[C@@H]1CSCC(=O)N[C@@H](CC(C)C)C(=O)N(C)[C@@H](C)C(=O)N[C@@H](CC(C)C)C(=O)N2CCC[C@@H]2C(=O)N(C)[C@@H](CC)C(=O)N[C@@H](CC(C)C)C(=O)N(C)[C@@H](C)C(=O)N[C@@H](CC(C)C)C(=O)N1C [LC06, O=C(N(C)[C@H](C(OCC)=O)CSCC(N[C@H](C(N(C)[C@@H](C)C(N[C@@H](CC(C)C)C(N1[C@H](CCC1)C(N(C)[C@@H](CC)C(N[C@H]2CC(C)C)=O)=O)=O)=O)=O)CC(C)C)=O)[C@H](CC(C)C)NC([C@H](C)N(C)C2=O)=O] ({CH2CO}-L[NMeA]L[dP][NMeAbu]L[NMeA]L[NMeC]-OEt; thioether N-9) |  |
| 4.6 |  | CCC[C@H]1C(=O)N[C@@H](CC(C)C)C(=O)N(C)[C@@H](C)C(=O)N[C@@H](CC(C)C)C(=O)N(C)[C@H](C(=O)OCC)CSCC(=O)N[C@@H](CC(C)C)C(=O)N(C)[C@@H](C)C(=O)N[C@@H](CC(C)C)C(=O)N2CCC[C@@H]2C(=O)N1C [LC08, O=C(N(C)[C@H](C(OCC)=O)CSCC(N[C@H](C(N(C)[C@@H](C)C(N[C@@H](CC(C)C)C(N1[C@H](CCC1)C(N(C)[C@@H](CCC)C(N[C@H]2CC(C)C)=O)=O)=O)=O)=O)CC(C)C)=O)[C@H](CC(C)C)NC([C@H](C)N(C)C2=O)=O] ({CH2CO}-L[NMeA]L[dP][NMeNva]L[NMeA]L[NMeC]-OEt; thioether N-9) |  |
| 7.4 |  | CCC[C@@H]1NC(=O)[C@H](C)N(C)C(=O)[C@H](CC(C)C)NC(=O)CSC[C@@H](C(=O)OCC)N(C)C(=O)[C@H](CC(C)C)NC(=O)[C@H](C)N(C)C(=O)[C@H](CC2CCCCC2)NC(=O)[C@H](CCC)N(C)C(=O)[C@H]2CCCN2C1=O [LC11, O=C(N(C)[C@H](C(OCC)=O)CSCC(N[C@H](C(N(C)[C@@H](C)C(N[C@@H](CCC)C(N1[C@H](CCC1)C(N(C)[C@@H](CCC)C(N[C@H]2CC3CCCCC3)=O)=O)=O)=O)=O)CC(C)C)=O)[C@H](CC(C)C)NC([C@H](C)N(C)C2=O)=O] ({CH2CO}-L[NMeA][Nva][dP][NMeNva][Cha][NMeA]L[NMeC]-OEt; thioether N-9) |  |
| 12.7 |  | CCC[C@H]1C(=O)N[C@@H](CC2CCCCC2)C(=O)N(C)[C@@H](C)C(=O)N[C@@H](CC(C)C)C(=O)N(C)[C@H](C(=O)OCC)CSCC(=O)N[C@@H](CC(C)C)C(=O)N(C)[C@@H](C)C(=O)N[C@@H](CC(C)C)C(=O)N2CCC[C@@H]2C(=O)N1C [LC12, O=C(N(C)[C@H](C(OCC)=O)CSCC(N[C@H](C(N(C)[C@@H](C)C(N[C@@H](CC(C)C)C(N1[C@H](CCC1)C(N(C)[C@@H](CCC)C(N[C@H]2CC3CCCCC3)=O)=O)=O)=O)=O)CC(C)C)=O)[C@H](CC(C)C)NC([C@H](C)N(C)C2=O)=O] ({CH2CO}-L[NMeA]L[dP][NMeNva][Cha][NMeA]L[NMeC]-OEt; thioether N-9) | Pe_avg [1]: 0 ×10⁻⁶ cm/s |

Further lines, the molecule ahead of its results:

| SMILES | %R_avg [1] [%] | Papp at 10 µM (in vitro [2]; pH 7.4, Pe_avg) [×10⁻⁶ cm/s] | further results |
| --- | --- | --- | --- |
| CCCN1CC(=O)N[C@@H](CC(C)C)C(=O)N(C)[C@@H](C)C(=O)N[C@@H](CC(C)C)C(=O)N(C)[C@H](C(=O)OCC)CSCC(=O)N[C@@H](CC(C)C)C(=O)N(C)[C@@H](C)C(=O)N[C@@H](CC(C)C)C(=O)N2CCC[C@@H]2C1=O [LA08, O=C(N(C)[C@H](C(OCC)=O)CSCC(N[C@H](C(N(C)[C@@H](C)C(N[C@@H](CC(C)C)C(N1[C@H](CCC1)C(N(CCC)CC(N[C@H]2CC(C)C)=O)=O)=O)=O)=O)CC(C)C)=O)[C@H](CC(C)C)NC([C@H](C)N(C)C2=O)=O] ({CH2CO}-L[NMeA]L[dP][NPrGly]L[NMeA]L[NMeC]-OEt; thioether N-9) | 4.8 | 0.794 | log(Pe)_avg [1]: -6.100 |
| CCC[C@@H]1NC(=O)CN(CC)C(=O)[C@H](CC(C)C)NC(=O)CSC[C@@H](C(=O)OCC)N(C)C(=O)[C@H](CC(C)C)NC(=O)[C@H](C)N(C)C(=O)[C@H](CC(C)C)NC(=O)[C@H](C)N(C)C(=O)[C@H]2CCCN2C1=O [LB05, O=C(N(C)[C@H](C(OCC)=O)CSCC(N[C@H](C1=O)CC(C)C)=O)[C@H](CC(C)C)NC([C@H](C)N(C)C([C@H](CC(C)C)NC([C@H](C)N(C)C([C@@H]2N(C([C@H](CCC)NC(CN1CC)=O)=O)CCC2)=O)=O)=O)=O] ({CH2CO}-L[NEtG][Nva][dP][NMeA]L[NMeA]L[NMeC]-OEt; thioether N-9) | 50.3 | 2.57 |  |
| CCCN1CC(=O)N[C@@H](CC(C)C)C(=O)N2CCC[C@@H]2C(=O)N(C)[C@@H](C)C(=O)N[C@@H](CC(C)C)C(=O)N(C)[C@@H](C)C(=O)N[C@@H](CC(C)C)C(=O)N(C)[C@H](C(=O)OCC)CSCC(=O)N[C@@H](CC(C)C)C1=O [LB08, O=C(N(C)[C@H](C(OCC)=O)CSCC(N[C@H](C1=O)CC(C)C)=O)[C@H](CC(C)C)NC([C@H](C)N(C)C([C@H](CC(C)C)NC([C@H](C)N(C)C([C@@H]2N(C([C@H](CC(C)C)NC(CN1CCC)=O)=O)CCC2)=O)=O)=O)=O] ({CH2CO}-L[NPrGly]L[dP][NMeA]L[NMeA]L[NMeC]-OEt; thioether N-9) | 13.3 | 2.29 |  |
| CCC[C@@H]1NC(=O)CN(CCC)C(=O)[C@H](CC(C)C)NC(=O)CSC[C@@H](C(=O)OCC)N(C)C(=O)[C@H](CC(C)C)NC(=O)[C@H](C)N(C)C(=O)[C@H](CC2CCCCC2)NC(=O)[C@H](C)N(C)C(=O)[C@H]2CCCN2C1=O [LB11, O=C(N(C)[C@H](C(OCC)=O)CSCC(N[C@H](C1=O)CC(C)C)=O)[C@H](CC(C)C)NC([C@H](C)N(C)C([C@H](CC2CCCCC2)NC([C@H](C)N(C)C([C@@H]3N(C([C@H](CCC)NC(CN1CCC)=O)=O)CCC3)=O)=O)=O)=O] ({CH2CO}-L[NPrGly][Nva][dP][NMeA][Cha][NMeA]L[NMeC]-OEt; thioether N-9) | 6.2 | 0.619 | Papp at 10 µM (in vitro [2]; pH 7.4, log(Pe)_avg): 0.551 ×10⁻⁶ cm/s |
| CCCN1CC(=O)N[C@@H](CC(C)C)C(=O)N2CCC[C@@H]2C(=O)N(C)[C@@H](C)C(=O)N[C@@H](CC2CCCCC2)C(=O)N(C)[C@@H](C)C(=O)N[C@@H](CC(C)C)C(=O)N(C)[C@H](C(=O)OCC)CSCC(=O)N[C@@H](CC(C)C)C1=O [LB12, O=C(N(C)[C@H](C(OCC)=O)CSCC(N[C@H](C1=O)CC(C)C)=O)[C@H](CC(C)C)NC([C@H](C)N(C)C([C@H](CC2CCCCC2)NC([C@H](C)N(C)C([C@@H]3N(C([C@H](CC(C)C)NC(CN1CCC)=O)=O)CCC3)=O)=O)=O)=O] ({CH2CO}-L[NPrGly]L[dP][NMeA][Cha][NMeA]L[NMeC]-OEt; thioether N-9) | 6.0 | 0.072 | Papp at 10 µM (in vitro [2]; pH 7.4, log(Pe)_avg): 0.0593 ×10⁻⁶ cm/s |
| CCC[C@@H]1NC(=O)[C@H](C)N(C)C(=O)[C@H](CC(C)C)NC(=O)CSC[C@@H](C(=O)OCC)N(C)C(=O)[C@H](CC(C)C)NC(=O)[C@H](C)N(C)C(=O)[C@H](CC(C)C)NC(=O)[C@H](CC)N(C)C(=O)[C@H]2CCCN2C1=O [LC05, O=C(N(C)[C@H](C(OCC)=O)CSCC(N[C@H](C(N(C)[C@@H](C)C(N[C@@H](CCC)C(N1[C@H](CCC1)C(N(C)[C@@H](CC)C(N[C@H]2CC(C)C)=O)=O)=O)=O)=O)CC(C)C)=O)[C@H](CC(C)C)NC([C@H](C)N(C)C2=O)=O] ({CH2CO}-L[NMeA][Nva][dP][NMeAbu]L[NMeA]L[NMeC]-OEt; thioether N-9) | 7.6 |  |  |
| CCOC(=O)[C@@H]1CSCC(=O)N[C@@H](CC(C)C)C(=O)N(C)[C@@H](C)C(=O)N[C@@H](CC(C)C)C(=O)N2CCC[C@@H]2C(=O)N(C)[C@@H](CC)C(=O)N[C@@H](CC2CCCCC2)C(=O)N(C)[C@@H](C)C(=O)N[C@@H](CC(C)C)C(=O)N1C [LC10, O=C(N(C)[C@H](C(OCC)=O)CSCC(N[C@H](C(N(C)[C@@H](C)C(N[C@@H](CC(C)C)C(N1[C@H](CCC1)C(N(C)[C@@H](CC)C(N[C@H]2CC3CCCCC3)=O)=O)=O)=O)=O)CC(C)C)=O)[C@H](CC(C)C)NC([C@H](C)N(C)C2=O)=O] ({CH2CO}-L[NMeA]L[dP][NMeAbu][Cha][NMeA]L[NMeC]-OEt; thioether N-9) | 10.5 |  |  |
